Experimental findings from patent US10837968B2, “Photoactivatable voltage sensitive dyes” (THE REGENTS OF THE UNIVERSITY OF CALIFORNIA, priority 2014, dated 2020) are described below.

For series [1], the system named is human embryonic kidney cells (HEK 293). Description: Cellular fluorescence of SPOT-stained HEK cells pre- and post-UV photoactivation. Conditions: HEK cells loaded with 200 nM SPOT; 390 nm light for 30 seconds; n=3. The class given is cell-based. The protocol:
(§1) FIGS. 1A-1E. Illumination of SPOT dramatically increases fluorescence. Spectroscopic characterization of SPOT in PBS, pH 7. a) Absorbance profile of SPOT before (grey dotted trace) and after (green trace) illumination at 365 nm. The UV-vis spectrum of photoactivated SPOT is identical to a known standard of VF2.1.C1 (black trace). b) Emission spectrum of SPOT before (grey dotted trace) and after illumination (green trace) at 365 nm. c) HEK cells loaded with 200 nM SPOT prior to illumination. d) Cells from c) after illumination with 390 nm light for 30 seconds. e) Quantification of cellular fluorescence from cells stained with SPOT pre- and post-UV photoactivation. Illumination as in panel d) gives a 12-fold increase in fluorescence intensity (n=3).
We next turned our attention to assessing the properties of SPOT in living cells. […] Illumination with 390 nm (30 s) light results in an immediate increase in cell membrane-associated fluorescence characteristic of VoltageFluor staining (FIG. 1D). […] Membrane-associated fluorescence depends on prior UV illumination, as examination of areas of the same sample not exposed to light show very little cellular fluorescence. […] Following illumination, the cells stained with SPOT become bright and voltage-sensitive. […]

A short description of series [2]: Spectroscopic characterization of SPOT in PBS, pH 7, before and after UV illumination. The class given is physicochemical. As to the method:
as §1
FIG. 2. Characterization of SPOT photoproducts.
SPOT is readily available in one step from previously reported VoltageFluor compounds (Miller, et al., Natl Acad Sci USA, 2012, 109:2114). Alkylation of VF2.1.C1 with 2-nitro-4,5-dimethoxybenzylbromide in DMF provides SPOT as an analytically pure sample after purification via HPLC. Larger quantities are available through an alternate route in which the sulfonefluorescein head-group is first alkylated and then coupled to the phenylenevinylene molecular wire to give SPOT. We examined the photophysical behavior and characteristics of SPOT under simulated physiological conditions (PBS, pH 7). […] Emission from SPOT is minimal (FIG. 1B, grey trace), as reflected by its low fluorescence quantum yield. UV illumination of SPOT promptly delivers VF, as measured by complete recovery of absorbance profiles characteristic of VF2.1.C1 (FIG. 1A, green and black traces) and a 25-fold increase in fluorescence emission (FIG. 1B green trace).

Values joined by “and” are separate entries in the source; they are usually repeats but may differ in a detail not shown here. Equal entries are not always repeated. “Also recorded” adds a separate entry of the source.

Regarding `COc1cc(COc2cc3oc4cc(=O)c(Cl)cc-4c(-c4ccc(/C=C/c5ccc(/C=C/c6ccc(N(C)C)cc6)cc5)cc4S(=O)(=O)O)c3cc2Cl)c([N+](=O)[O-])cc1OC` [SPOT, 2-(2,7-dichloro-6-((4,5-dimethoxy-2-nitrobenzyl)oxy)-3-oxo-3H-xanthen-9-yl)-5-((E)-4-((E)-4-(dimethylamino)styryl)styryl)benzenesulfonic acid], the “increase in mean cellular fluorescence intensity following irradiation” value in series [1] was 12±1.2 fold and 12 fold. In addition, in series [2] (PBS, pH 7, before illumination), the “absorbance maximum (λmax / strong absorbance)” value was determined as 400 nm and the fluorescence quantum yield entry is reported as “low”. The “increase in fluorescence emission after UV illumination” value in series [2] (PBS, pH 7, illumination at 365 nm) amounted to 25 fold. Moreover, in series [2] (phosphate buffered saline, pH 7.0, 365 nm light), the “photoproduct of irradiation (HPLC and mass spectrometry)” value is given as “clean conversion of SPOT into VF2.1.C1; also recorded: cleanly gives VF2.1.C1”.
